This experiment addresses ROCK2 (human) (UniProt O75116). Description: Inhibition of ROCK2 Kinase Activity.

Some results are limits rather than exact numbers.

Chain of ROCK2 (human) (O75116 whole entry, looked up): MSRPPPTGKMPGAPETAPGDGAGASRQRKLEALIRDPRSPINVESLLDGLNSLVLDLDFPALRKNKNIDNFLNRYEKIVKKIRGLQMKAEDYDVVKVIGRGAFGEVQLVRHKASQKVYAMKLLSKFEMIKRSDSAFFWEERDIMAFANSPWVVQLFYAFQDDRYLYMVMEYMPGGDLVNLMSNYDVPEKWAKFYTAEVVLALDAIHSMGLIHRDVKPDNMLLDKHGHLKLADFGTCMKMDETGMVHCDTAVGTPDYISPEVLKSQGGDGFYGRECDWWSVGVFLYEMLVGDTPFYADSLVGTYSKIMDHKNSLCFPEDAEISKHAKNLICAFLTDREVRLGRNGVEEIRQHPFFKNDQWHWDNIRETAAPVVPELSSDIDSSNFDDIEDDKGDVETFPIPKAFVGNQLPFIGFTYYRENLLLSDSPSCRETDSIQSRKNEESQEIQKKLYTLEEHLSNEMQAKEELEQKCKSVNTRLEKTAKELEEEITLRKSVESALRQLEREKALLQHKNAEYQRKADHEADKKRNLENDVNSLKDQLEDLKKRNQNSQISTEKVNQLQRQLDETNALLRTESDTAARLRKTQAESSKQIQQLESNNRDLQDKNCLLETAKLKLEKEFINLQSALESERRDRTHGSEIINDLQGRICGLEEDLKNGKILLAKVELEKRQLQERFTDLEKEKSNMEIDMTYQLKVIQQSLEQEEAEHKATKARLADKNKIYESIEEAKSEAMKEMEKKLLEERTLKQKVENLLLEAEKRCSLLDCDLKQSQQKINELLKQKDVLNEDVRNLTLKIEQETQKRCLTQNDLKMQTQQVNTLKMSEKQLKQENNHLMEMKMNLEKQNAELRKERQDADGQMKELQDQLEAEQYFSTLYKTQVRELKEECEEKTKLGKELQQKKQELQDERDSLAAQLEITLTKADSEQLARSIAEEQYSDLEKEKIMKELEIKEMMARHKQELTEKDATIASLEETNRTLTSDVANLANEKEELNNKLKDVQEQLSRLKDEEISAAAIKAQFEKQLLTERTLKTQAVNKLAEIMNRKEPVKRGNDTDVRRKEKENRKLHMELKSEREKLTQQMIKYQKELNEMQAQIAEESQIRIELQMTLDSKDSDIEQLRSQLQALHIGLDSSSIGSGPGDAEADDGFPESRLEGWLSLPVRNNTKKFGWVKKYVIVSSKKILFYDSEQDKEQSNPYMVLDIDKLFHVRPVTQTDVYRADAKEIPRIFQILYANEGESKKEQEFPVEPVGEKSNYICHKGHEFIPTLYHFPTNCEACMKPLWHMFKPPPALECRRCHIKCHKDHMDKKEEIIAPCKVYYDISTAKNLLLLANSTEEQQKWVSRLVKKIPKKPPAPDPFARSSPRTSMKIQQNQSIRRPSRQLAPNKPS

Usually IC50 stands for the concentration that gives 50% inhibition. A low value points to higher potency. For `CN1CCCC(COc2ccc3cnccc3c2Br)C1` (stereo not drawn), the IC50 is not above 1000 nM.
`c1cc2c(cc1Nc1cc3cc(OC4CCNCC4)ccc3cn1)OCO2` had an IC50 not above 1000 nM.
With `c1ccc(-c2cc3cnccc3cc2OC2CCNCC2)cc1`, the IC50 was not above 1000 nM.
`COc1ccc2cc(CN3CCC(Oc4ccc5cnccc5c4)CC3)ccc2c1`: the IC50 was not above 1000 nM.
The result for `Brc1c(OC2CCNCC2)ccc2cnccc12` reads not above 1000 nM.
Compound `Clc1cncc2ccc(OC3CCNCC3)cc12` displayed a 50% inhibitory concentration (IC50) not above 1000 nM.
The result for `COc1ccc(-c2c(OC3CCNCC3)ccc3cnccc23)cc1N` reads not above 1000 nM; that for `Ic1c(OC2CCNCC2)ccc2cnccc12`, not above 1000 nM.
In the case of `Clc1cc(OC2CCNCC2)cc2ccncc12` it was not above 1000 nM; in that of `Clc1cc2cnccc2c(Cl)c1OC1CCNCC1`, not above 1000 nM; in that of `COc1cc(Nc2cc3cc(OC4CCNCC4)ccc3cn2)cc(OC)c1OC`, not above 1000 nM.
`c1ccc2oc(-c3c(OC4CCNCC4)ccc4cnccc34)cc2c1` registered an IC50 not above 1000 nM.
The result for `Cc1cc(OC2CCNCC2)c(C)c2ccncc12` reads not above 1000 nM.

The record behind these values is the Kinase Knowledgebase extract (Sharma et al. 2016).
